Reference: paper PMC11708044 (mBio, 2024)
pIC50: −log10 of the molar value. Like-named read-outs stand apart in the source and are kept apart here. Where a SMILES comes first, the peptide text is derived from it. Bridges are numbered along the chain shown (N, C = ends). Roman numbers before positions name the chains, in order. Where no end group is shown, it is not given here. [ ]: non-standard residue; d: D form. Ahx = NCCCCCC(=O)O

Experiments:
[1] = system: IAV strain PR8; format: cell-based, type A influenza virus (IAV)
[2] = system: CaMKII Thr286 autophosphorylation; assay: Western blot of LPS-induced CaMKII activation in RAW264.7 cells (Fig. S2b); format: cell-based, mouse
Protocol: (§1) a LPS promotes tumor necrosis factor α (TNFα) production in RAW264.7 cells. RAW264.7 cells were treated with the indicated concentration of LPS for 24 h. The amount of TNFα produced in the culture medium was measured by ELISA. Data are presented as a percentage of the control value without peptide (n = 3, mean ± SEM). **P < 0.01; ***P < 0.001 (compared with the control by ANOVA followed by one-sided Dunnett’s test). b The effects of M6 and mM3 on the activation of CaMKII in RAW264.7 cells. RAW264.7 cells were incubated with the indicated concentration of each peptide for 30 min, and then treated with 10 ng/ml LPS for 20 min. The cell lysates were analyzed by western blot using phosphorylated […] specific antibody to detect the activation of CaMKII (upper panel). Data are representative of three independent experiments. […] RAW264.7 cells were incubated with the indicated concentration of each peptide for 30 min, and then treated with10 ng/ml LPS for 3 h. The mRNA level of each proinflammatory cytokine was analyzed by quantitative RT-qPCR. Data are presented as the amount of each mRNA relative to that of LPS treatment only (n = 3, mean ± SEM). **P < 0.01, ***P < 0.001 (compared with the control by ANOVA followed by one-sided Tukey’s test).

[3] = system: TNFα production in RAW264.7 cells; assay: ELISA of TNFα production in LPS-treated RAW264.7 cells; format: cell-based, mouse; conditions: RAW264.7, peptide 30 min then LPS 10 ng/mL 24 h
[4] = system: IL-6, TNFα, IL-1β mRNAs; assay: RT-qPCR of proinflammatory cytokine mRNAs in LPS-treated RAW264.7 cells (Fig. S2c); format: cell-based, mouse; conditions: for IL-1β Relative expression AV / IL-6 Relative expression AV / TNFα Relative expression AV: RAW264.7 cells, LPS = 100, mean of n = 3
Protocol: as §1

[5] = system: IAV strain PR8; format: cell-based, type A influenza virus (IAV); remark: listed apart in the source
[6] = biological target: T1, CaMKII-KD (Rattus norvegicus, UniProt P11275); assay: Kinase assay: phosphorylation of autocamtide-2 by CaMKII-KD; format: biochemical
T1 construct: made in house; host or cells: Sf21 insect cells, baculovirus (pBacPAK8)
T1 sequence (P11275 13-271 limits assumed): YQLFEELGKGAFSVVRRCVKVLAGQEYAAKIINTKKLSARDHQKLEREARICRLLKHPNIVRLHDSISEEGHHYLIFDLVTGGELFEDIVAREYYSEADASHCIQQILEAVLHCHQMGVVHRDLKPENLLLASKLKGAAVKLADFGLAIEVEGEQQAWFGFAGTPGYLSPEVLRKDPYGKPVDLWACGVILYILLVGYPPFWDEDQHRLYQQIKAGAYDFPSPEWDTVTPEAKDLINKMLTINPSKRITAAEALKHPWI

[7] = system: CCL5 and CXCL10 mRNAs; format: cell-based, canine
[8] = system: IFNα, IFNβ, Mx1 mRNAs; format: cell-based, canine
[9] = system: NP RNA of IAV strain PR8; format: cell-based, type A influenza virus (IAV)
[10] = system: IAV strain PR8; design: species or system BALB/c mice; conditions: mouse, in vivo

With `Cc1nn(CC(F)(F)F)cc1Nc1ncc(Br)c(NCc2ccc(S(N)(=O)=O)cc2)n1` [GSK8612] the “IAV-induced cytopathicity of MDCK cells, time of addition” value [1] was “best when GSK8612 was added up to 3 h after infection”.

In the case of “myr-Met-Ala-[no. 3 or 6 motif]-Ala [mM3, N-terminal myristoylated-M3 (myr-Met-Ala-[no. 3 motif]-Ala)]”, the “inhibitory effect on IAV cytopathicity, single cycle of infection” value [1] was “greatest inhibitory effect on IAV cytopathicity at concentrations up to 3 µM”, the “LPS-induced Thr286 autophosphorylation of CaMKII” value ([2]; RAW264.7, peptide 30 min then 10 ng/ml LPS 20 min, western blot) was “efficiently inhibited” and the “Phosphorylation of CaMKII (ratio) AV” value ([2]; peptide 10µM, RAW264.7 cells, (-) = 1, mean of n = 3) was 0.8346. The “inhibition of TNFα production” value [3] was “inhibited TNFα production similarly to M6”, the “transcription of IL-6, TNFα and IL-1β” value ([4]; RAW264.7, peptide 30 min then 10 ng/ml LPS 3 h, RT-qPCR) was “efficiently inhibited” and the “IL-1β Relative expression AV” value ([4]; peptide only (no LPS)) was 0.006044. The “IL-6 Relative expression AV” value ([4]; peptide only (no LPS)) was 0.006603, the “TNFα Relative expression AV” value ([4]; peptide only (no LPS)) was 2.34 and the “IL-1β Relative expression AV” value ([4]; peptide+LPS) was 16.8504. The “IL-6 Relative expression AV” value ([4]; peptide+LPS) was 27.8458 and the “TNFα Relative expression AV” value ([4]; peptide+LPS) was 57.9321.

`CO/C1=C\C(C)=C\[C@@H](C)[C@@H](O)[C@@H](C)C/C(C)=C/C=C/[C@H](OC)[C@@H]([C@@H](C)[C@@H](O)[C@H](C)[C@@]2(O)C[C@@H](O)[C@H](C)[C@@H](C(C)C)O2)OC1=O` [baf] was tested, and the “DiO positive vesicles (DiO/R18) Average” value [5] was 0.08663.

Molecule “I: MARRILLLLLALLHAKKK[Ahx]KK-NH2 / II: MARRILLLLLALLHAKKK[Ahx]K / III: MARRILLLLLALLHAKKK[Ahx] / IV: MARRILLLLLALLHAKKK[Ahx] (amide I:20-IV:C, I:21-II:C, II:20-III:C) [T6]” has a pIC50 [6] of 4.49.

Work on “I: MARRILLLLLARLHAKKK[Ahx]KK-NH2 / II: MARRILLLLLARLHAKKK[Ahx]K / III: MARRILLLLLARLHAKKK[Ahx] / IV: MARRILLLLLARLHAKKK[Ahx] (amide I:20-IV:C, I:21-II:C, II:20-III:C) [T3]” yielded a pIC50 [6] of 5.07.

In the case of `CO/C1=C\C(C)=C\[C@@H](C)[C@@H](O)[C@@H](C)C/C(C)=C/C=C/[C@H](OC)[C@@H]([C@@H](C)[C@@H](O)[C@H](C)[C@@]2(O)C[C@@H](O)[C@H](C)[C@@H](C(C)C)O2)OC1=O` [bafilomycin A1, reference compound], the “fusion process / virus entry into cells” value [5] was “efficiently inhibited virus entry into cells”.

In the case of “I: MARRILLLLLARHHAKKK[Ahx]KK-NH2 / II: MARRILLLLLARHHAKKK[Ahx]K / III: MARRILLLLLARHHAKKK[Ahx] / IV: MARRILLLLLARHHAKKK[Ahx] (amide I:20-IV:C, I:21-II:C, II:20-III:C) [T2]”, the pIC50 [6] was 4.85.

“I: MARRRLLLLLARHHAKKK[Ahx]KK-NH2 / II: MARRRLLLLLARHHAKKK[Ahx]K / III: MARRRLLLLLARHHAKKK[Ahx] / IV: MARRRLLLLLARHHAKKK[Ahx] (amide I:20-IV:C, I:21-II:C, II:20-III:C) [T1]” gave a pIC50 [6] of 5.62.

`O=C1c2c(O)c(=O)ccn2N([C@@H]2c3ccccc3SCc3c2ccc(F)c3F)[C@@H]2COCCN12` [BXA, Baloxavir acid] was tested, and the “infection-induced cytopathicity” value [1] was “efficiently inhibited”, the “expression of CXCL10 and CCL5 mRNAs” value [7] was “also increased their expression” and the “expression of IFNα and β mRNAs early in infection” value [8] was “rather increased the expression of both mRNAs”. The “expression of IFNα and β mRNAs later in infection” value [8] was “greatly reduced” and the “infection-induced expression of NP mRNA” value [9] was “efficiently inhibited”.

With `COc1ccc(S(=O)(=O)N(CCO)c2ccccc2CN(C)C/C=C/c2ccc(Cl)cc2)cc1` [KN-93] the “protection from mortality” value [10] was “provided no protection”.

`CSCC[C@H](N)C(=O)N[C@@H](C)C(=O)N[C@@H](CCCNC(=N)N)C(=O)N[C@@H](CCCNC(=N)N)C(=O)N[C@@H](CCCNC(=N)N)C(=O)N[C@@H](CC(C)C)C(=O)N[C@@H](CC(C)C)C(=O)N[C@@H](CC(C)C)C(=O)N[C@@H](CC(C)C)C(=O)N[C@@H](CC(C)C)C(=O)N[C@@H](C)C(=O)N[C@@H](CCCNC(=N)N)C(=O)N[C@@H](Cc1c[nH]cn1)C(=O)N[C@@H](Cc1c[nH]cn1)C(=O)N[C@@H](C)C(=O)N[C@@H](CCCCN)C(=O)N[C@@H](CCCCN)C(=O)N[C@@H](CCCCN)C(=O)NCCCCCC(=O)O` [M1] (H-MARRRLLLLLARHHAKKK[Ahx]-OH) gave a pIC50 ([6]; read-out: IC50) of 4.53.

`CC[C@H](C)[C@H](NC(=O)[C@H](CCCNC(=N)N)NC(=O)[C@H](CCCNC(=N)N)NC(=O)[C@H](C)NC(=O)[C@@H](N)CCSC)C(=O)N[C@@H](CC(C)C)C(=O)N[C@@H](CC(C)C)C(=O)N[C@@H](CC(C)C)C(=O)N[C@@H](CC(C)C)C(=O)N[C@@H](CC(C)C)C(=O)N[C@@H](C)C(=O)N[C@@H](CC(C)C)C(=O)N[C@@H](CC(C)C)C(=O)N[C@@H](Cc1c[nH]cn1)C(=O)N[C@@H](C)C(=O)N[C@@H](CCCCN)C(=O)N[C@@H](CCCCN)C(=O)N[C@@H](CCCCN)C(=O)NCCCCCC(=O)O` [M6] (H-MARRILLLLLALLHAKKK[Ahx]-OH) gave a pIC50 ([6]; read-out: IC50) of 4.91.

`CC[C@H](C)[C@H](NC(=O)[C@H](CCCNC(=N)N)NC(=O)[C@H](C)NC(=O)[C@@H](N)CCSC)C(=O)N[C@H](C(=O)N[C@@H](CC(C)C)C(=O)N[C@@H](CC(C)C)C(=O)N[C@@H](CC(C)C)C(=O)N[C@@H](CC(C)C)C(=O)N[C@@H](CC(C)C)C(=O)N[C@@H](C)C(=O)N[C@@H](CCCNC(=N)N)C(=O)N[C@@H](CC(C)C)C(=O)N[C@@H](Cc1c[nH]cn1)C(=O)N[C@@H](C)C(=O)N[C@@H](CCCCN)C(=O)N[C@@H](CCCCN)C(=O)N[C@@H](CCCCN)C(=O)NCCCCCC(=O)O)[C@@H](C)CC` [M5] (H-MARIILLLLLARLHAKKK[Ahx]-OH) was tested, and the pIC50 ([6]; read-out: IC50) was 4.95.

In the case of `CC[C@H](C)[C@H](NC(=O)[C@H](CCCNC(=N)N)NC(=O)[C@H](CCCNC(=N)N)NC(=O)[C@H](C)NC(=O)[C@@H](N)CCSC)C(=O)N[C@@H](CC(C)C)C(=O)N[C@@H](CC(C)C)C(=O)N[C@@H](CC(C)C)C(=O)N[C@@H](CC(C)C)C(=O)N[C@@H](CC(C)C)C(=O)N[C@@H](C)C(=O)N[C@@H](CCCNC(=N)N)C(=O)N[C@@H](Cc1c[nH]cn1)C(=O)N[C@@H](Cc1c[nH]cn1)C(=O)N[C@@H](C)C(=O)N[C@@H](CCCCN)C(=O)N[C@@H](CCCCN)C(=O)N[C@@H](CCCCN)C(=O)NCCCCCC(=O)O` [M2] (H-MARRILLLLLARHHAKKK[Ahx]-OH), the pIC50 ([6]; read-out: IC50) was 4.47.

`CC[C@H](C)[C@H](NC(=O)[C@H](CCCNC(=N)N)NC(=O)[C@H](CCCNC(=N)N)NC(=O)[C@H](C)NC(=O)[C@@H](N)CCSC)C(=O)N[C@@H](CC(C)C)C(=O)N[C@@H](CC(C)C)C(=O)N[C@@H](CC(C)C)C(=O)N[C@@H](CC(C)C)C(=O)N[C@@H](CC(C)C)C(=O)N[C@@H](C)C(=O)N[C@@H](CCCNC(=N)N)C(=O)N[C@@H](CC(C)C)C(=O)N[C@@H](Cc1c[nH]cn1)C(=O)N[C@@H](C)C(=O)N[C@@H](CCCCN)C(=O)N[C@@H](CCCCN)C(=O)N[C@@H](CCCCN)C(=O)NCCCCCC(=O)O` [M3] (H-MARRILLLLLARLHAKKK[Ahx]-OH) showed a pIC50 ([6]; read-out: IC50) of 4.71.
